Earlier results, collected in patent US20090214648A1 (priority 2008, published 2009).

What was measured:
[1] = in vivo

## CC(C)Cc1ccc(C(C)C(=O)O)cc1 (stereo not shown) [Ibuprofen, 2-[4-(2-methylpropyl)phenyl]propanoic acid]
Enzyme cyclooxygenase
  Inhibition of cyclooxygenase: potent inhibitor
[1]
  Dose excreted in the urine: more than 90%
  Dose excreted unchanged: Less than 10%
  Time until excretion is essentially complete: ≤ 24 h
